Structures are written as SMILES.

The values that follow come from patent publication US20080305059A1, “Skin lightening compositions and methods” (priority 2007, published 2008).

Data set [1] relates to skin color of forearm test sites. Briefly: Skin lightening efficacy on forearms, chromometric measurement of L value and ITA degree. The class given is in vivo, human. Particulars: for ΔITA Degrees / ΔL Value: applied twice a day to forearm, 15 individuals, delta = percent change from baseline; for ΔITA Degrees / ΔL Value / adverse effects: 0.5% hexylresorcinol or 2% hydroquinone composition; for adverse effects: twice a day for eight weeks on forearms. Here is the method:
The composition was prepared by mixing the components of Phase A-1 until a substantially homogenous mixture was obtained and then dispersing that mixture in Phase A-2 with moderate agitation. The mixture was mixed until a homogeneous clear dispersion was obtained. Then, the components of Phase B were combined, mixed and heated to 75° C. and then added to the Phase A-1/A-2 mixture. The so formed mixture was homogenized for 2-3 minutes to obtain a substantially uniform composition. Phase C was added and mixed until uniform. After cooling down to 50° C., Phases D, E and F in the listed order were added and mixed and the final composition then cooled down to room temperature. […] A second skin lightening composition was prepared in the same manner with the same formulation except that the highly purified hexylresorcinol was replaced with 2% hydroquinone (Eastman) and water adjusted accordingly. Each of the skin lightening compositions was applied to different test sites on the forearms of fifteen individuals. The compositions were applied twice a day, morning and evening, for eight weeks. The test sites as well as untreated sites on each forearm were evaluated by a trained clinical evaluator for brightness of skin, evenness of skin tone, appearance of skin, dryness of skin and radiance of skin using a 10 point scale prior to the first application and following Week 4 and Week 8. Each test site was evaluated for skin color change as represented by the change in L values and ITA.degree (Individual Topology Angle—COLIPA SPF test method) as measured by chromometric measurement. ITA° was calculated using the formula: ITA°=[Arc Tangent(L*−50)/b*)]180/3.1416 Wherein, L*value—lightness and b*—color in blue-yellow axis. The results of the testing were as presented in Table 3, wherein the delta represents the percent change in skin color from the baseline coloration of the untreated skin.

Data set [2] concerns skin of the infrascapular regions of the back. Briefly: Skin sensitivity: repeat occlusive patch test (nine inductive patchings plus challenge). The class given is in vivo, human. Particulars: 5% dilution in corn oil, 111 subjects. Here is the method: Given the known sensitivity issues associated with commercial grade hexylresorcinol, evaluation of the skin sensitivity to the purified hexylresorcinol was also evaluated. Skin sensitivity was evaluated following the method cited in the reference Appraisal of the Safety of Chemicals in Food, Drugs and Cosmetics, published by The Association of Food and Drug Officials of The United States. The specific method employed used nine inductive patchings, not the ten cited in the reference, under occlusive patch conditions. Samples were prepared for evaluation by diluting the highly pure hexylresorcinol in corn oil to a 5% concentration, with dilutions freshly prepared on each application day. 0.2 ml of the diluted test material was dispensed onto occlusive, hypoallergenic patches and the treated patches applied directly to the skin of the infrascapular regions of the back, to the right or left of the midline of each subject: one hundred and eleven subjects were employed. […] If evidence of a reaction was found, the area of edema and/or erythema was then measured and recorded: edema being estimated by an evaluation of the skin with respect to the contour of the unaffected normal skin. […] The challenge or retest sites were monitored and scored 24 and 48 hours after application.

Consider `Oc1ccc(O)cc1` [Hydroquinone, hydroquinone, reference compound], for which, in data set [1] (Week 4), the “ΔITA Degrees” value is listed as 27.66% and the “ΔL Value” was 3.24%. Further, in data set [1] (Week 8), the “ΔITA Degrees” value is recorded as 39.38% and the “ΔL Value” is on record as 4.27%. In addition, in data set [1], the adverse effects entry is on record as “No adverse effects”.
Regarding `CCCCCCc1ccc(O)cc1O` [Hexylresorcinol, 4-Hexylresorcinol], in data set [2] (0.2 ml occlusive patch, nine 24 hour exposures), the “primary irritation (edema or erythema)” value is reported as “NON-PRIMARY IRRITANT”. For the same compound, in data set [2] (challenge after 10-14 day rest, scored 24 and 48 hours), the “sensitization after challenge patch” value is reported as “NON-PRIMARY SENSITIZER”. In data set [1] (0.5% composition, eight weeks twice a day), the “change in skin color compared with the 2% hydroquinone composition” value is “comparable, statistically significant”. In data set [1] (Week 4), the “ΔITA Degrees” value stood at 27.48% and the “ΔL Value” turned out to be 3.4%. In addition, in data set [1] (Week 8), the “ΔITA Degrees” value is reported as 37.56% and the “ΔL Value” was determined as 4.67%. Besides, in data set [1], the adverse effects result was “No adverse effects”.
